This note sets out measurements from patent US6528528B2 (Warner-Lambert Company, priority 1997, dated 2003).

pEC50: −log10 of the molar value.

For orientation: melting point means the temperature of the solid-liquid transition. For orientation: IC50 means the concentration that gives 50% inhibition. High values mean weaker potency in that assay, low ones greater potency in that assay.

Data set [1] has as its target T1, rabbit reticulocyte 15-LO (Oryctolagus cuniculus, UniProt P12530).
T1 construct: Fifteen-lipoxygenase was obtained from phenylhydrazine-treated rabbits and purified per the method of Rapoport; from tissue; host or cells: reticulocytes of phenylhydrazine-treated rabbits
T1 sequence (P12530 1-663): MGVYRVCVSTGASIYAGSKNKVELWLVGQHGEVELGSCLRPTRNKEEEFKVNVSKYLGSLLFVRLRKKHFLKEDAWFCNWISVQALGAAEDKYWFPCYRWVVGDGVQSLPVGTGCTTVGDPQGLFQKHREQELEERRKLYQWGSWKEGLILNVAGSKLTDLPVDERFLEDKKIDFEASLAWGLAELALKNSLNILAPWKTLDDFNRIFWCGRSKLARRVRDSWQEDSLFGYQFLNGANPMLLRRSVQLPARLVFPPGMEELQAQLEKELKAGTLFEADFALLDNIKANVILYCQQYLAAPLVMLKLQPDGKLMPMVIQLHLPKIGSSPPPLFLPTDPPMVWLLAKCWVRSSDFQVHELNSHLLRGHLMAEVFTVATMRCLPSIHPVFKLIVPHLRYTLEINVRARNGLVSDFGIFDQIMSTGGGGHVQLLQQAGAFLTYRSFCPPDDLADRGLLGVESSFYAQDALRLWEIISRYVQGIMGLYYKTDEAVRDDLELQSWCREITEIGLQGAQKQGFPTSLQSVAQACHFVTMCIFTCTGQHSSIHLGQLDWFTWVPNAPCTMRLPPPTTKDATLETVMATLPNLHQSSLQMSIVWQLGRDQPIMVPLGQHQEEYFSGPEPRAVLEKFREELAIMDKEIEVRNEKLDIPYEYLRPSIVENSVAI
As to the kind of experiment: Rabbit Reticulocyte 15-LO Assay (h15LO). The data set is classed as biochemical. The following applies: for IC50: 2U rabbit reticulocyte 15-LO, 174 μM linoleic acid, 15 minutes at 4° C. Summed up:
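Purified rabbit reticulocyte 15-LO (2U) incubated with inhibitor and 174 μM linoleic acid in PBS with 0.2% Na cholate for 15 minutes at 4° C. 13-HPODE quantified by peak area against 13-HODE standard curve; % inhibition relative to uninhibited reaction.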

Data set [2] concerns Rabbits fed a 0.25% cholesterol, 3% peanut oil, 3% coconut oil diet. Put plainly: In vivo tests: aortic atherosclerotic lesions in rabbits fed a cholesterol diet. The note with it: 10 mg/kg as diet admix, 12 weeks. The method, then: The entire descending thoracic aorta was assayed for its cholesteryl ester (CE), free cholesterol phospholipid content. The lipids were extracted in chloroform:methanol (2:1) by the procedure of Folch, et al. (Folch J., Lees M., Sloane-Stanley G. H. A simple method for the isolation and purification of total lipids from animal tissue, J. Biol. Chem., 1957;226:497-509) and 300-500 μL of an internal standard, i.e., 200 mg/ml solution of 4-hydroxy-cholesterol in ethyl acetate:acetone (2:1), was added to the extracts of the thoracic aortic samples. After extraction, the organic phase was dried under nitrogen and redissolved in isooctane/tetrahydro-furan (97:3). The lipid content and composition of the thoracic aorta were measured using an HPLC method.
For histologic evaluation of the aortic arch lesions and for quantification of aortic arch cross-sectional lesion area, a 1 cm segment of the ascending aorta distal to the aortic valves was fixed in 10% neutral buffered formalin for 24 hours. The vessels were dehydrated, cleared in xylene, and infiltrated with molten paraffin (<60° C.) using a Tissue Tek VIP autoprocessor (Miles Scientific, Elkhart, Ind.). The tissue segments were embedded in paraffin and sectioned at 5 μm with a Reichert-Jung microtome (Baxter, McGraw Park, Ill.). In order to obtain a thorough representation of the histologic appearance of the aortic arch lesions, 3 ribbons of 20 sections each were cut. Each ribbon of sections was spaced approximately 100 μm apart. Three pairs of sections, i.e., 1 pair from each ribbon, were affixed to cleaned 3-aminopropyltriethoxy-silane coated glass slides and stored until stained. The general histologic character was evaluated in Verhoeff's elastica stained sections.
The gross extent of atherosclerosis within the aortic arch was measured. In addition, sections of the aortic arch, a site of hypercholesterolemia-induced lesions, stained using the Verhoeff's elastica procedure were used for quantification of lesion cross-sectional. The internal elastic lamina (IEL) was identified as a blue-black ring and images of that region were collected using a digital camera. The area within the IEL was quantified using the Image Pro Plus image analysis software. The area of the lumen of the aortic arch was also quantified in a similar fashion. Lesion area was defined as the difference between the area circumscribed by the internal elastic lamina and the lumen area.
Aortic arch lesion extent was also measured. The area distal to the 1 cm segment taken for histologic evaluation to the first intercostal ostia was removed from the animal, opened longitudinally and images of the surface of the vessel was collected using a digital camera. The lesions were identified as raised, opaque areas and their area was determined using the Image Pro Plus image analysis software. The area of the entire aortic arch was also determined. The percentage of aortic arch covered by atherosclerotic lesions was calculated.

The subject of the next data set is monocytes. Put plainly: Monocyte Recruitment Assay (chemotaxis of monocytes). The class given is cell-based. The note with it: Table 3; for pEC50: Monocyte, read-out: Monocyte Recruitment Assay ED50. The method, then: Monocyte Recruitment Assay
The recruitment or chemotaxis of monocytes was assayed by methods well known to those skilled in the art. In particular, the method set forth in J. Clin. Invest., 1988;82:1853-1863, which is hereby incorporated by reference, was used.

Regarding `COc1ccc(C(=O)Nc2ccc(Cl)c(Cl)c2)cc1N` [Example 4, 3-Amino-4-methoxy-N-(3,4-dichlorophenyl)-benzamide], the melting point fell in the range of 179 to 182 °C. Besides, the IC50 in data set [1] (Table 1) stood at 10 nM. In data set [2], the “Aortic Arch Cross-Sectional Lesion Area (% Δ from Control)” value is −94 % Δ from Control, the “Aortic Arch Lesion Extent (% Δ from Control)” value was “+20 % Δ from Control” and the “Aortic Cholesteryl Ester Content (% Δ from Control)” value was −7 % Δ from Control.

Turning to `COc1ccc(C(=O)Nc2ccccc2)cc1Nc1ccccc1` [Example 28, 4-Methoxy-3-phenylainino-N-phenyl-benzamide], the melting point was in the range of 194 to 195 °C. Also, the “Monocyte Recruitment Assay % @ 30 μM” value in the data set with monocytes is listed as 25% @ 30 μM. In data set [1] (Table 2), this compound had an IC50 of 39 nM.

`COc1ccc(C(=O)Nc2ccccc2)cc1Nc1cc(Cl)cc(Cl)c1` [Example 35, 3-(3,5-Dichloro-phenylamino)-4-methoxy-N-phenyl-benzamide]: the pEC50 with monocytes is 4.58. The midpoint of inhibition in data set [1] (Table 2), the IC50, lay at 7 nM.

The compound `COc1ccc(C(=O)Nc2ccc(F)cc2)cc1Nc1cccc(C(F)(F)F)c1` [Example 40, 3-(3-Trifluoromethyl-phenylamino)-4-methoxy-N-(4-fluorophenyl)-benzamide] had a melting point of 163 to 164 °C. Also, in data set [1] (Table 2), the IC50 came out at 17 nM. Further, in data set [2], the “Aortic Arch Cross-Sectional Lesion Area (% Δ from Control)” value is reported as −6 % Δ from Control, the “Aortic Arch Lesion Extent (% Δ from Control)” value is reported as “+35 % Δ from Control” and the “Aortic Cholesteryl Ester Content (% Δ from Control)” value is recorded as “+5 % Δ from Control”.

In the case of `COc1ccc(C(=O)Nc2ccccc2)cc1NCc1cc(Cl)cc(Cl)c1` [Example 51, 3-(3,5-Dichloro-benzylamino)-4-methoxy-N-phenyl-benzamide], in the data set with monocytes, the pEC50 is 4.70. The inhibition at 10 µM in data set [1] (0.25 h, Table 2, @ 10 μM, read-out: h15LO % @ 10 μM) came out at 69%.

The compound `O=C(Nc1ccccc1)c1ccc(O)c(Nc2cc(Cl)cc(Cl)c2)c1` [Example 56, 4-Hydroxy-3-(3,5-dichloro-phenylamino)-N-phenyl-benzamide] displayed a melting point of 160 to 162 °C. Also, the pEC50 in the data set on monocytes was 5.59. The same compound gave an IC50 in data set [1] (Table 2) of 18 nM.

Compound `COc1ccc(C(=O)Nc2ccccc2)cc1NC(=S)Nc1cc(Cl)cc(Cl)c1` [Example 60, 3-[3-(3,5-Dichlorophenyl)-thioureido]-4-methoxy-N-phenyl-benzamide] registered a melting point of 195 to 197 °C. The pEC50 with monocytes was 4.75. In data set [1] (Table 2), this compound came in with a half-maximal inhibitory concentration (IC50) of 8.6 nM. Moreover, in data set [2], the “Aortic Arch Cross-Sectional Lesion Area (% Δ from Control)” value is “+84 % Δ from Control”, the “Aortic Arch Lesion Extent (% Δ from Control)” value is “+40 % Δ from Control” and the “Aortic Cholesteryl Ester Content (% Δ from Control)” value is on record as “+59 % Δ from Control”.

`COc1ccc(C(=O)Nc2ccccc2)cc1NC(=S)Nc1ccc(Cl)cc1` [Example 65, 3-[3-(4-Chlorophenyl)-thioureido]-4-methoxy-N-phenyl-benzamide]: the melting point was in the range of 179 to 180 °C. Besides, in the data set on monocytes, the pEC50 is 4.64. The IC50 in data set [1] (Table 2) amounted to 42 nM.

The compound `COc1ccc(C(=O)Nc2ccccc2)cc1NC(=S)Nc1cccc([N+](=O)[O-])c1` [Example 66, 3-[3-(3-Nitrophenyl)-thioureido]-4-methoxy-N-phenyl-benzamide] gave a melting point of 188 to 189 °C. Moreover, the “Monocyte Recruitment Assay % @ 30 μM” value with monocytes is listed as 38% @ 30 μM. The midpoint of inhibition in data set [1] (Table 2), the IC50, lay at 7 nM.

Turning to `COc1ccc(C(=O)Nc2ccccc2)cc1NC(=S)NC(=O)c1ccccc1` [Example 67, 4-Methoxy-N-phenyl-3-(3-benzoyl-thioureido)-benzamide], the pEC50 in the data set with monocytes is 4.62. Besides, in data set [1] (Table 2), it took 10000 nM to reach half-maximal inhibition (IC50).

As for `COc1ccc(C(=O)Nc2ccccc2)cc1NC(=S)Nc1c(F)c(F)cc(F)c1F` [Example 68, 4-Methoxy-N-phenyl-3-[3-(2,3,5,6-tetrafluoro-phenyl)-thioureido]-benzamide], the melting point fell in the range of 170 to 174 °C. Further, the pEC50 with monocytes is 5.64. This compound registered an IC50 in data set [1] (Table 2) of 42 nM.

For `COc1ccc(C(=O)Nc2ccccc2)cc1NC(=S)Nc1ccc(C)cc1` [Example 69, 4-Methoxy-N-phenyl-3-(-3-p-tolyl-thioureido)-benzamide], the “Monocyte Recruitment Assay % @ 30 μM” value in the data set with monocytes came out at 13% @ 30 μM. Besides, inhibition in data set [1] (Table 2) was half-maximal at 32 nM (IC50).

`COc1ccc(C(=O)Nc2ccccc2)cc1NC(=S)Nc1ccc(C(=O)O)cc1` [Example 75, 4-[3-(2-Methoxy-5-phenylcarbamoyl-phenyl)-thioureido]-benzoic acid] registered a melting point of 201 to 202 °C. Moreover, the 50% inhibitory concentration (IC50) in data set [1] (Table 2) came to 104 nM. In addition, in data set [2], the “Aortic Arch Cross-Sectional Lesion Area (% Δ from Control)” value is given as −90 % Δ from Control, the “Aortic Arch Lesion Extent (% Δ from Control)” value was −49 % Δ from Control and the “Aortic Cholesteryl Ester Content (% Δ from Control)” value is −28 % Δ from Control.

`COc1ccc(C(=O)Nc2ccc(F)cc2)cc1NC(=S)Nc1cc(Cl)cc(Cl)c1` [Example 91, 3-[3-(3,5-Dichlorophenyl)-thioureido]-N-(4-fluorophenyl)-4-methoxy-benzamide] gave a melting point of 175 to 178 °C. In data set [1] (Table 2), this compound displayed an IC50 of 8 nM. For the same compound, in data set [2], the “Aortic Arch Cross-Sectional Lesion Area (% Δ from Control)” value is −11 % Δ from Control, the “Aortic Arch Lesion Extent (% Δ from Control)” value is −12 % Δ from Control and the “Aortic Cholesteryl Ester Content (% Δ from Control)” value was “+50 % Δ from Control”.

For `COc1ccc(C(=O)Nc2ccc(Cl)c(Cl)c2)cc1NS(C)(=O)=O` [Example 119, 3-Methanesulfonylamino-4-methoxy-N-(3,4-dichlorophenyl)-benzamide], the melting point lay in the range of 226 to 228 °C. In data set [1] (Table 2), this compound returned an IC50 of 90 nM. Also, in data set [2], the “Aortic Arch Cross-Sectional Lesion Area (% Δ from Control)” value is on record as −50 % Δ from Control, the “Aortic Arch Lesion Extent (% Δ from Control)” value is recorded as “+46 % Δ from Control” and the “Aortic Cholesteryl Ester Content (% Δ from Control)” value is recorded as “+46 % Δ from Control”.
